Results published in patent US20250129054A1 (Terran Biosciences Inc., priority 2022, published 2025).
Several values for one entry are separate records, joined by “and”; a condition that tells them apart may be missing. Identical values can stand only once. Like-named read-outs stand apart in the source and are kept apart here.

Columns and labels:
[1] = Serial tail vein bleed PK study in SD rats: methylone measured in plasma after IV or oral methylone or oral methylone prodrugs; format: in vivo, Sprague Dawley rats; conditions: methylone in plasma, male SD rats; for half-life: read-out: T½ (converted)
Summary of the method: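 Three male Sprague-Dawley rats received methylone at 1 mg/kg IV (saline) or 10 mg/kg PO, or prodrugs at 10 mg/kg PO in 10% DMSO/20% PEG400/70% water, doses as methylone equivalents. Methylone measured in serial plasma samples. Non-compartmental PK parameters derived from nominal doses.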

[2] = cited from earlier work
[3] = male, Sprague-Dawley, rat, plasma, iv, 1 mg/kg, methylone 1 mg/kg IV, individual animals
[4] = male, Sprague-Dawley, rat, plasma, iv, 1 mg/kg, methylone 1 mg/kg IV, mean
[5] = male, Sprague-Dawley, rat, plasma, po, 10 mg/kg, methylone 10 mg/kg oral, individual animals
[6] = male, Sprague-Dawley, rat, plasma, po, 10 mg/kg, methylone 10 mg/kg oral, mean
[7] = methylone 1 mg/kg IV, individual animals
[8] = methylone 10 mg/kg oral, individual animals

CNC(C)C(=O)c1ccc2c(c1)OCO2 (racemic) [Methylone, 3,4-methylenedioxy-N-methylcathinone, reference compound]
AUC(0-t) [1, 3]: 163 ng·h/mL
AUC(0-inf) ([1]; male, Sprague-Dawley, rat, plasma, iv, 1 mg/kg, methylone 1 mg/kg IV, individual animals, read-out: AUC0-inf): 168 ng·h/mL
Cmax ([1]; male, Sprague-Dawley, rat, plasma, iv, 1 mg/kg, methylone 1 mg/kg IV, individual animals, read-out: Cmax): 192 ng/mL
Tmax ([1]; male, Sprague-Dawley, rat, plasma, iv, 1 mg/kg, methylone 1 mg/kg IV, individual animals, read-out: Tmax): 15 min
half-life [1, 3]: 24.6 min
AUC(0-t) [1, 4]: 142 ng·h/mL
AUC(0-inf) ([1]; male, Sprague-Dawley, rat, plasma, iv, 1 mg/kg, methylone 1 mg/kg IV, mean, read-out: AUC0-inf): 145 ng·h/mL
Cmax ([1]; male, Sprague-Dawley, rat, plasma, iv, 1 mg/kg, methylone 1 mg/kg IV, mean, read-out: Cmax): 172 ng/mL
Tmax ([1]; male, Sprague-Dawley, rat, plasma, iv, 1 mg/kg, methylone 1 mg/kg IV, mean, read-out: Tmax): 15 min
half-life [1, 4]: 23.7 min
AUC(0-t) [1, 5]: 636 ng·h/mL
AUC(0-inf) ([1]; male, Sprague-Dawley, rat, plasma, po, 10 mg/kg, methylone 10 mg/kg oral, individual animals, read-out: AUC0-inf): 729 ng·h/mL
half-life [1, 5]: 135 min
AUC(0-t) [1, 6]: 681 ng·h/mL
AUC(0-inf) ([1]; male, Sprague-Dawley, rat, plasma, po, 10 mg/kg, methylone 10 mg/kg oral, mean, read-out: AUC0-inf): 890 ng·h/mL
Cmax ([1]; male, Sprague-Dawley, rat, plasma, po, 10 mg/kg, methylone 10 mg/kg oral, mean, read-out: Cmax): 170 ng/mL
Tmax ([1]; male, Sprague-Dawley, rat, plasma, po, 10 mg/kg, methylone 10 mg/kg oral, mean, read-out: Tmax): 70.2 min
half-life [1, 6]: 148 min
AUC0-last [1, 7]: 134 ng·h/mL and 128 ng·h/mL
AUC(0-inf) [1, 7]: 136 ng·h/mL and 131 ng·h/mL
Cmax [1, 7]: 165 ng/mL and 159 ng/mL
Tlast [1, 7]: 2.0 h
T½ [1, 7]: 22.8 min and 24 min
Tlast ([1]; methylone 1 mg/kg IV, mean): 2.0 h
AUC0-last [1, 8]: 520 ng·h/mL and 888 ng·h/mL
AUC(0-inf) [1, 8]: 1050 ng·h/mL
Cmax [1, 8]: 130 ng/mL and 119 ng/mL and 260 ng/mL
Tlast [1, 8]: 7.00 h
Tmax [1, 8]: 60 min and 120 min and 30 min
T½ [1, 8]: 160 min
Tlast ([1]; methylone 10 mg/kg oral, mean): 7.00 h
reported time to achieve peak effects ([2]; after oral dosing, Poyatos et al., 2021): 1 to 2 h
Oral Methylone Dose for Drug Activity Level Very Strong ([2]; human, oral, modified from WHO 2014): ≥270 mg
prolongation of duration of effects by re-dose ([2]; re-dose of one-third to one-half the initial dose, WHO 2014): approximately one
